Test results as given in PubChem BioAssay (NCI).
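How tested: cells in 96-well plates exposed to compound for 48 hours at five concentrations. GI50 = concentration required for 50% inhibition of growth. Definition used: TGI = concentration required for complete inhibition of growth.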

Key:
Assay in all cases: growth of human tumour cells (NCI), 48 h
[1] = system: T-47D breast
[2] = system: HCC-2998 colon
[3] = system: DU-145 prostate
[4] = system: EKVX NSCLC
[5] = system: KM12 colon
[6] = system: SF-268 CNS
[7] = system: MDA-MB-231 breast
[8] = system: HS 578T breast
[9] = system: RPMI-8226 leukemia
[10] = system: SN12C renal
[11] = system: TK-10 renal
[12] = system: SF-295 CNS
[13] = system: COLO 205 colon
[14] = system: K-562 leukemia
[15] = system: 786-0 renal
[16] = system: ACHN renal
[17] = system: SNB-19 CNS
[18] = system: NCI-H23 lung
[19] = system: HCT-116 colon
[20] = system: A549 NSCLC
[21] = system: MCF7 breast
[22] = system: OVCAR-3 ovarian
[23] = system: NCI-H226 lung
[24] = system: NCI-H460 lung
[25] = system: OVCAR-5 ovarian
[26] = system: MALME-3M melanoma
[27] = system: RXF 393 renal
[28] = system: SNB-75 CNS
[29] = system: OVCAR-8 ovarian
[30] = system: HT29 colon
[31] = system: LOX IMVI melanoma
[32] = system: MDA-MB-435
[33] = system: M14 melanoma
[34] = system: PC-3 prostate
[35] = system: BT-549 breast
[36] = system: IGROV1 ovarian
[37] = system: CAKI-1 renal
[38] = system: SF-539 CNS
[39] = system: SK-MEL-28 melanoma
[40] = system: SK-MEL-2 melanoma
[41] = system: UO-31 renal
[42] = system: SK-OV-3 ovarian
[43] = system: UACC-62 melanoma
[44] = system: U251 CNS
[45] = system: NCI/ADR-RES ovarian
[46] = system: UACC-257 melanoma
[47] = system: SW-620 colon
[48] = system: NCI-H522 lung
[49] = system: HCT-15 colon
[50] = system: HOP-62 NSCLC
[51] = system: CCRF-CEM leukemia
[52] = system: SK-MEL-5 melanoma
[53] = system: OVCAR-4 ovarian

`Cc1ccc(C2=C(c3ccc(C)cc3)C3(c4ccc(C)cc4)[C@@H](C#N)[C@H](C#N)C2(c2ccc(C)cc2)S3=O)cc1` (stereo partly specified) showed a GI50 [1] of over 100 µM, a TGI [1] of over 100 µM and a GI50 [2] of over 100 µM. It also gave a TGI [2] of over 100 µM, a GI50 [3] of over 100 µM and a TGI [3] of over 100 µM. It also gave a GI50 [4] of over 100 µM, a TGI [4] of over 100 µM and a GI50 [5] of over 100 µM. For the same compound, the TGI [5] was over 100 µM, the GI50 [6] was over 100 µM and the TGI [6] was over 100 µM. For the same compound, the GI50 [7] was over 100 µM, the TGI [7] was over 100 µM and the GI50 [8] was over 100 µM. It also gave a TGI [8] of over 100 µM, a GI50 [9] of over 100 µM and a TGI [9] of over 100 µM. For the same compound, the GI50 [10] was over 100 µM, the TGI [10] was over 100 µM and the GI50 [11] was over 100 µM. The TGI [11] was over 100 µM, the GI50 [12] was over 100 µM and the TGI [12] was over 100 µM. It also gave a GI50 [13] of over 100 µM, a TGI [13] of over 100 µM and a GI50 [14] of 2.02 µM. It also gave a TGI [14] of over 100 µM, a GI50 [15] of over 100 µM and a TGI [15] of over 100 µM. For the same compound, the GI50 [16] was over 100 µM, the TGI [16] was over 100 µM and the GI50 [17] was over 100 µM. The TGI [17] was over 100 µM, the GI50 [18] was over 100 µM and the TGI [18] was over 100 µM. For the same compound, the GI50 [19] was 48.5 µM, the TGI [19] was over 100 µM and the GI50 [20] was over 100 µM. For the same compound, the TGI [20] was over 100 µM, the GI50 [21] was over 100 µM and the TGI [21] was over 100 µM. The GI50 [22] was over 100 µM, the TGI [22] was over 100 µM and the GI50 [23] was over 100 µM. It also gave a TGI [23] of over 100 µM, a GI50 [24] of over 100 µM and a TGI [24] of over 100 µM. For the same compound, the GI50 [25] was over 100 µM, the TGI [25] was over 100 µM and the GI50 [26] was over 100 µM. The TGI [26] was over 100 µM, the GI50 [27] was over 100 µM and the TGI [27] was over 100 µM. The GI50 [28] was over 100 µM, the TGI [28] was over 100 µM and the GI50 [29] was over 100 µM. The TGI [29] was over 100 µM, the GI50 [30] was over 100 µM and the TGI [30] was over 100 µM. The GI50 [31] was over 100 µM, the TGI [31] was over 100 µM and the GI50 [32] was over 100 µM. It also gave a TGI [32] of over 100 µM, a GI50 [33] of 30.1 µM and a TGI [33] of over 100 µM. For the same compound, the GI50 [34] was over 100 µM, the TGI [34] was over 100 µM and the GI50 [35] was over 100 µM. The TGI [35] was over 100 µM, the GI50 [36] was over 100 µM and the TGI [36] was over 100 µM. For the same compound, the GI50 [37] was over 100 µM, the TGI [37] was over 100 µM and the GI50 [38] was over 100 µM. The TGI [38] was over 100 µM, the GI50 [39] was over 100 µM and the TGI [39] was over 100 µM. The GI50 [40] was over 100 µM, the TGI [40] was over 100 µM and the GI50 [41] was over 100 µM. The TGI [41] was over 100 µM, the GI50 [42] was over 100 µM and the TGI [42] was over 100 µM. It also gave a GI50 [43] of over 100 µM, a TGI [43] of over 100 µM and a GI50 [44] of over 100 µM. It also gave a TGI [44] of over 100 µM, a GI50 [45] of over 100 µM and a TGI [45] of over 100 µM. The GI50 [46] was over 100 µM, the TGI [46] was over 100 µM and the GI50 [47] was over 100 µM. For the same compound, the TGI [47] was over 100 µM, the GI50 [48] was over 100 µM and the TGI [48] was over 100 µM. The GI50 [49] was over 100 µM, the TGI [49] was over 100 µM and the GI50 [50] was over 100 µM. For the same compound, the TGI [50] was over 100 µM, the GI50 [51] was over 100 µM and the TGI [51] was over 100 µM. It also gave a GI50 [52] of over 100 µM, a TGI [52] of over 100 µM and a GI50 [53] of over 100 µM. For the same compound, the TGI [53] was over 100 µM.
